In patent US10640507B2, “PBD antibacterial agents” (KING'S COLLEGE LONDON, priority 2015, dated 2020):
Converted amounts (≈) assume the structure as drawn. Where two headings read alike, the source gives them in different places.

Legend:
NCTC 13368 = assay: Effect of efflux pump inhibitors (EPIs) on MIC; type: cell-based, K. pneumoniae; conditions: for MIC: Klebsiella pneumoniae; for +PABN MIC: PABN at 25 μg/ml
Procedure: (§1) 1. Grow up cultures of bacterial strains to be tested overnight.
(§2) 2. Dilute down overnight cultures to concentration of 1×10^6 bacteria/ml (OD0.01) in Tryptic soy broth (TSB).
(§3) 3. Add 100 μl of TSB media to column 2-column 12 in 96 well plate (keeping column 1 clear).
(§4) 4. Make up compound to a concentration of 64 μg/ml in water.
(§5) 5. Add 100 μl of antibiotic solution to the 1st and 2nd columns.
(§6) 6. Using a multichannel pipette take 100 μl from the 2nd column wells and pipette into 3rd column wells and repeat down the 96 well plate (remember to include controls i.e. uninfected media and media with no antibiotic).
(§7) 7. To each well (except uninfected control row H) add 50 μl/well of EPI at 4× final concentration in TSB.
(§8) 9. In wells used to test the effect of the EPI carbonyl cyanide 3-chlorophenylhydrazone (CCCP) the CCCP is added at 10 μg/ml final concentration.
(§9) 10. In wells used to test the effect of the EPI phenylalanine-arginine β-naphthylamide (PABN) the PABN is added at 25 μg/ml final concentration.
(§10) 11. In wells used to test the effect of the PABN+Mg, the PABN is added at 25 μg/ml final concentration, with 1 mM MgSO4 in TSB.
(§11) 12. Wrap plate with parafilm to prevent evaporation.
(§12) 13. Leave at desired temperature (37° C. unless specified elsewhere) for 20 hours.
(§13) 14. Next day check plates for growth and measure optical density (i.e. absorbance) at a wavelength of 600 nm (OD600).
(§14) Compound KMR-14-33 was tested against a range of bacterial species using the above protocol. Compound PP-A148 was also tested against a more limited range of bacterial species using the above protocol. For KMR-14-33 measurements were carried out for the compound alone, for the compound plus CCCP, for the compound plus PABN and for the compound plus PABN and plus Mg. For PP-A148 measurements were carried out for the compound alone and for the compound plus PABN.

M6 = assay: Effect of efflux pump inhibitors (EPIs) on MIC; type: cell-based, K. pneumoniae; conditions: for MIC: Klebsiella pneumoniae; for +PABN MIC: PABN at 25 μg/ml
Procedure: as §1, §2, §3, §4, §5, §6, §7, §8, §9, §10, §11, §12, §13, §14

A. baumannii - NCTC13424 = type: cell-based; conditions: drug at 4×MIC
Procedure: (§15) 1. Grow bacteria overnight.
(§16) 2. Subculture into an autoclaved conical flask containing 10 ml of TSB to an OD of 0.01 (˜1×10^7 Cfu/ml for KP-M6).
(§17) 4. Take aliquots (100 μl) at timepoints (0, 1, 2, 4, 6, 24 hours) and carry out a serial dilution in PBS (to remove drug and to dilute bacteria to countable numbers).
(§18) 5. Use the serial dilution to perform a Miles Misra—i.e. Add 3×10 μl spots of each dilution onto an agar plate. Incubate overnight and count colonies on spots in the morning.
(§19) 6. Control: Subculture bacteria alongside samples but with no antibiotic added. Take aliquots from this at every time point (0, 1, 2, 4, 6, 24 hours) and perform Miles Misra on these too (as detailed in points 4 and 5 above).
(§20) 7. After the first experiment, if the counts seen on Miles-Misra were zero, total viable counts were determined by spreading 200 μl in a streak down the centre of a TSB agar plate, waiting for the liquid to be absorbed and then spreading over the plate and checking for growth inhibition at the sight of the original streak.
(§21) 8. The compound is considered bactericidal if the inoculum was reduced >3 log10 CFU/ml and bacteriostatic if inoculum was reduced by 0-3 log10 CFU/ml.
(§22) Three measurements were taken for each compound at each time point. These measurements were averaged and the standard deviation was also calculated.

[1] = system: A. baumannii - NCTC 17978; assay: Time kill kinetics; type: cell-based; conditions: drug at 4×MIC
Procedure: as §15, §16, §17, §18, §19, §20, §21, §22

Psueudomonas GH12 = assay: General MIC protocol, Gram negative; type: cell-based; conditions: Pseudomonas
Procedure: General Minimum Inhibitory Concentration (MIC) Protocol
as §1, §2, §3
4. Make up compound to a concentration of 64 μg/ml in water (or alternatively to twice the chosen maximum concentration to be tested).
as §5
6. Using a multichannel pipette take 100 μl from the 2nd column wells and pipette into 3rd column wells and repeat down the 96 well plate (remembering to include controls i.e. uninfected media and media with no antibiotic).
7. To each well (except uninfected control row H) add 100 μl of bacterially infected media at a concentration of 1×10^6/ml.
8. This dilutes down the concentration of the antibiotic by half (top dose is therefore 32 μg/ml in column 1) and also gives you a starting bacterial concentration of 5×10^5/ml.
9. Wrap plate with parafilm to prevent evaporation.
10. Leave at desired temperature (37° C. unless specified elsewhere) for 20 hours.
11. Next day check plates for growth and measure optical density (i.e. absorbance) at a wavelength of 600 nm (OD600).
An example of such a plate is shown in FIG. 1 where column A represents wells that receive the top dose 100 μl; column B represents wells that receive the top dose 100 μl+100 μl TSB; and column C represents wells that receive 100 μl TSB. Row H which is marked by a box labelled D represents a blank where the cells receive no bacteria.
The activity of the compound designated PP-A148 was tested against an extended panel of Klebsiella and Pseudomonas Gram-negative bacterial strains that have proven drug resistant difficult to treat. […] The minimum inhibitory concentration (MIC) was measured using the general MIC protocol given above.

[2] = NCTC13368, read-out: Control with no EPI MIC
[3] = read-out: Control with no EPI MIC

COc1cc2c(cc1OCCCC(=O)Nc1cc(C(=O)Nc3ccc4sc(C(=O)N(C)C)cc4c3)n(C)c1)N=C[C@@H]1CCCN1C2=O [KMR-14-33, (S)—N-(2-(dimethylcarbamoyl)benzo[b]thiophen-5-yl)-4-(4-((7-methoxy-5-oxo-2,3,5,11a-tetrahydro-1H-benzo[e]pyrrolo[1,2-a][1,4]-diazepin-8-yl)oxy)butanamido)-1-methyl-1H-pyrrole-2-carboxamide]
MIC (NCTC 13368; NCTC13368, read-out: +CCCP MIC): 2 µg/mL (≈ 3.05 µM) | MIC (NCTC 13368; [2]): 2 µg/mL (≈ 3.05 µM) | +PABN MIC (NCTC 13368; NCTC 13368): 1 µg/mL | +PABN + Mg MIC (NCTC 13368; NCTC 13368, PABN at 25 μg/ml with 1 mM MgSO4): 0.5 µg/mL | MIC (M6; read-out: +CCCP MIC): 0.125 µg/mL (≈ 0.19 µM) | MIC (M6; [3]): 1 µg/mL (≈ 1.52 µM) | +PABN MIC (M6; M6): 0.125 µg/mL | +PABN + Mg MIC (M6; M6, PABN at 25 μg/ml with 1 mM MgSO4): 0.25 µg/mL | Average (Log CFU/ml) (A. baumannii - NCTC13424; time-point 1 hours): 1923.667 Log CFU/ml | n = 1 (Log CFU/ml) (A. baumannii - NCTC13424; time-point 1 hours): 0 Log CFU/ml | n = 2 (CFU/ml) (A. baumannii - NCTC13424; time-point 1 hours): 940 CFU/ml | n = 3 (CFU/mL) (A. baumannii - NCTC13424; time-point 1 hours): 4830 CFU/mL | Average (Log CFU/ml) (A. baumannii - NCTC13424; time-point 2 hours): 0 Log CFU/ml | n = 1 (Log CFU/ml) (A. baumannii - NCTC13424; time-point 2 hours): 0 Log CFU/ml | n = 2 (Log CFU/ml) (A. baumannii - NCTC13424; time-point 2 hours): 0 Log CFU/ml | n = 3 (Log CFU/ml) (A. baumannii - NCTC13424; time-point 2 hours): 0 Log CFU/ml | Average (Log CFU/ml) (A. baumannii - NCTC13424; time-point 4 hours): 0 Log CFU/ml | n = 1 (Log CFU/ml) (A. baumannii - NCTC13424; time-point 4 hours): 0 Log CFU/ml | n = 2 (Log CFU/ml) (A. baumannii - NCTC13424; time-point 4 hours): 0 Log CFU/ml | n = 3 (Log CFU/ml) (A. baumannii - NCTC13424; time-point 4 hours): 0 Log CFU/ml | Average (Log CFU/ml) (A. baumannii - NCTC13424; time-point 6 hours): 0 Log CFU/ml | n = 1 (Log CFU/ml) (A. baumannii - NCTC13424; time-point 6 hours): 0 Log CFU/ml | n = 2 (Log CFU/ml) (A. baumannii - NCTC13424; time-point 6 hours): 0 Log CFU/ml | n = 3 (Log CFU/ml) (A. baumannii - NCTC13424; time-point 6 hours): 0 Log CFU/ml | Average (Log CFU/ml) (A. baumannii - NCTC13424; time-point 24 hours): 2084 Log CFU/ml | n = 1 (CFU/mL) (A. baumannii - NCTC13424; time-point 24 hours): 6250 CFU/mL | n = 2 (Log CFU/ml) (A. baumannii - NCTC13424; time-point 24 hours): 0 Log CFU/ml | n = 3 (Log CFU/ml) (A. baumannii - NCTC13424; time-point 24 hours): 0 Log CFU/ml | Average (CFU/ml) ([1]; time-point 1 hours): 0 CFU/ml | n = 1 (Log CFU/ml) ([1]; time-point 1 hours): 0 Log CFU/ml | n = 2 (Log CFU/ml) ([1]; time-point 1 hours): 0 Log CFU/ml | n = 3 (Log CFU/ml) ([1]; time-point 1 hours): 0 Log CFU/ml | Average (CFU/ml) ([1]; time-point 2 hours): 0 CFU/ml | n = 1 (Log CFU/ml) ([1]; time-point 2 hours): 0 Log CFU/ml | n = 2 (Log CFU/ml) ([1]; time-point 2 hours): 0 Log CFU/ml | n = 3 (Log CFU/ml) ([1]; time-point 2 hours): 0 Log CFU/ml | Average (CFU/ml) ([1]; time-point 4 hours): 0 CFU/ml | n = 1 (Log CFU/ml) ([1]; time-point 4 hours): 0 Log CFU/ml | n = 2 (Log CFU/ml) ([1]; time-point 4 hours): 0 Log CFU/ml | n = 3 (Log CFU/ml) ([1]; time-point 4 hours): 0 Log CFU/ml | Average (CFU/ml) ([1]; time-point 6 hours): 0 CFU/ml | n = 1 (Log CFU/ml) ([1]; time-point 6 hours): 0 Log CFU/ml | n = 2 (Log CFU/ml) ([1]; time-point 6 hours): 0 Log CFU/ml | n = 3 (Log CFU/ml) ([1]; time-point 6 hours): 0 Log CFU/ml | Average (CFU/ml) ([1]; time-point 24 hours): 0 CFU/ml | n = 1 (Log CFU/ml) ([1]; time-point 24 hours): 0 Log CFU/ml | n = 2 (Log CFU/ml) ([1]; time-point 24 hours): 0 Log CFU/ml | n = 3 (Log CFU/ml) ([1]; time-point 24 hours): 0 Log CFU/ml

COc1cc2c(cc1OCCCC(=O)Nc1cc(C(=O)Nc3ccc4oc(C(=O)N5CCSCC5)cc4c3)n(C)c1)N=C[C@@H]1CCCN1C2=O [PP-A148, (S)-4-(4-((7-methoxy-5-oxo-2,3,5,11a-tetrahydro-1H-benzo-[e]pyrrolo[1,2-a][1,4]diazepin-8-yl)oxy)butanamido)-1-methyl-N-(2-(thiomorpholine-4-carbonyl)benzofuran-5-yl)-1H-pyrrole-2-carboxamide]
MIC (NCTC 13368; [2]): 16 to 32 µg/mL (≈ 22.9 to 45.8 µM) | +PABN MIC (NCTC 13368; NCTC 13368): 2 to 8 µg/mL | MIC (M6; [3]): 0.25 to 0.5 µg/mL (≈ 0.358 to 0.716 µM) | +PABN MIC (M6; M6): 0.125 µg/mL | MIC (Psueudomonas GH12): > 128 µg/mL
